The source of these data is patent publication US20240270821A1, “GIP/GLP1/GCG TRI-RECEPTOR AGONISTS AND USES THEREOF” (priority 2023, published 2024).

Type in all cases: cell-based
The target of assay [1] is T1, hGIPR (Homo sapiens, UniProt P48546).
T1 sequence (P48546 22-466): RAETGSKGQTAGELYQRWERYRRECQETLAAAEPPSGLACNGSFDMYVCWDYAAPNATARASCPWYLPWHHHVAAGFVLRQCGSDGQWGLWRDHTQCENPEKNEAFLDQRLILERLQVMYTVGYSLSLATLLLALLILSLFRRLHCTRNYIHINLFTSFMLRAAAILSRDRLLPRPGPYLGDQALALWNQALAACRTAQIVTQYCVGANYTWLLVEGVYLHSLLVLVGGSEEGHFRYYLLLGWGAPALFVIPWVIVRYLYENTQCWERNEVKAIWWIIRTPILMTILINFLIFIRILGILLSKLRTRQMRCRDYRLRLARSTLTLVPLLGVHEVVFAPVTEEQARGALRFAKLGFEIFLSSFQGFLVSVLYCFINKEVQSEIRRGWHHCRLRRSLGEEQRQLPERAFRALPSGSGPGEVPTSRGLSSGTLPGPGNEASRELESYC
The experiment in a line: Functional cAMP activity in the presence of 1% HSA.

For assay [2], the target named is T2, hGLP-1R (Homo sapiens, UniProt P43220). Put plainly: Functional cAMP activity in the presence of 1% HSA.
T2 sequence (P43220 24-463): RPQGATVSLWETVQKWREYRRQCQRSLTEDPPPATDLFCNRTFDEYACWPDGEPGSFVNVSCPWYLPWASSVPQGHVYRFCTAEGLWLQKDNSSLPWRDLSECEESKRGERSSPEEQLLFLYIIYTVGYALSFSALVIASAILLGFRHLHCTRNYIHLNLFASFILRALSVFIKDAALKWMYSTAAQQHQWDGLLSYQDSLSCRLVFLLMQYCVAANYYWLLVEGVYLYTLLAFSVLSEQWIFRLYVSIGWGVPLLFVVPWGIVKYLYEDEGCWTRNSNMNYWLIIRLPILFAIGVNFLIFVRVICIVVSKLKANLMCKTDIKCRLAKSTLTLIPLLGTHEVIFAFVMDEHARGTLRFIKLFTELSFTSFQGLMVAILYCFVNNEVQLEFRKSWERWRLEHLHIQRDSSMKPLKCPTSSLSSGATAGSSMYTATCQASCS
For the next assay, the target named is human GcgR (Homo sapiens, UniProt P47871). Put plainly: Functional cAMP activity in the presence of 1% HSA.
human GcgR, sequence (P47871 26-477): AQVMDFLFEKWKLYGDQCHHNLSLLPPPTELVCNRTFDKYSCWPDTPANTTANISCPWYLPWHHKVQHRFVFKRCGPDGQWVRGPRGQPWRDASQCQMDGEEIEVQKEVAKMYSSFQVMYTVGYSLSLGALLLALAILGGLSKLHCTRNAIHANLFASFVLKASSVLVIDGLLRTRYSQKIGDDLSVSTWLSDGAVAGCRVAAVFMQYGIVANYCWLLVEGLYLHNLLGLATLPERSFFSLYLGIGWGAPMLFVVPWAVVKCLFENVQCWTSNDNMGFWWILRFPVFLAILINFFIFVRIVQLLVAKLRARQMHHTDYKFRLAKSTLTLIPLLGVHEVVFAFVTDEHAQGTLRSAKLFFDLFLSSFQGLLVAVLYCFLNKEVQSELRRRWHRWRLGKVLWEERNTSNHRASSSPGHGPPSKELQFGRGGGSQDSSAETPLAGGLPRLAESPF
Assay [3] deals with T1, hGIPR. Put plainly: Functional cAMP activation in the presence of 0.1% casein (no HSA).
The target of assay [4] is T2, hGLP-1R. The assay is described as above.
In the next assay the target is hGcgR (Homo sapiens, UniProt P47871). The assay is described as above.
hGcgR, sequence (P47871 26-477): as above
The target in another assay is human GLP1-R (Homo sapiens, UniProt P43220). The experiment in a line: GLP1-R internalization assay in HEK293 cells. The note with it: for Internalization % TOP: normalized to maximum concentration of GLP-1 (100%).
human GLP1-R, sequence (P43220 24-463): as the sequence (P43220 24-463) above
Where [5] appears, read: read-out: cAMP Rel EC50, hGLP-1R.
Where [6] appears, read: in the presence of 0.1% casein (no HSA), geometric mean, read-out: Relative cAMP EC50, hGIPR.
[7] abbreviates: in the presence of 0.1% casein (no HSA), geometric mean, read-out: Relative cAMP EC50, hGLP-1R.
[8] abbreviates: in the presence of 0.1% casein (no HSA), geometric mean, read-out: Relative cAMP EC50, hGcgR.
The mark [9] stands for this setting: HEK293 cells expressing SNAP-GLP-1R, read-out: GLP1R Internalization EC50.

The term EC50 denotes the midpoint of the concentration-response curve.

Read-outs that look alike come from different tables or passages of the source. Starred links: 1 amine or outer side, 2 acyl side, 3 side chain; linkers in the order of their positions; H or OH if unused. Non-standard residues stand in square brackets, D forms with d. Groups on a side chain read outwards from the residue. No end group written: not given here. *: point of attachment. C20 diacid = O=C(O)CCCCCCCCCCCCCCCCCCC(=O)*; C18 diacid = O=C(O)CCCCCCCCCCCCCCCCC(=O)*; γGlu = O=C(O)[C@H](CCC(=O)[*:2])N[*:1]; αMeL = CC(C)C[C@](C)(N)C(=O)O; Orn = NCCC[C@H](N)C(=O)O; Dab = NCC[C@H](N)C(=O)O; Dap = NC[C@H](N)C(=O)O; AEEA = NCCOCCOCC(=O)O; Aib = CC(C)(N)C(=O)O
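Wherever Relative cAMP EC50, hGIPR is given: intracellular cAMP rise after 30 min at 37 °C read by HTRF against a standard curve, scaled between buffer alone (0%) and top control ligand concentration (100%), four-parameter fit.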
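Wherever Relative cAMP EC50, hGLP-1R is given: intracellular cAMP rise after 30 min at 37 °C read by HTRF, normalized between buffer only (0%) and maximal control ligand (100%), four-parameter variable-slope fit.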
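Wherever Relative cAMP EC50, hGcgR is given: intracellular cAMP rise after 30 min at 37 °C, read by HTRF against a cAMP standard curve, scaled from buffer only (0%) to maximal control ligand response (100%).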

Consider `CC[C@H](C)[C@H](NC(=O)[C@H](Cc1ccccc1)NC(=O)[C@H](C)NC(=O)C(C)(C)NC(=O)[C@H](CCC(N)=O)NC(=O)[C@H](C)NC(=O)[C@H](CCCCNC(=O)COCCOCCNC(=O)COCCOCCNC(=O)CC[C@H](NC(=O)CCCCCCCCCCCCCCCCCCC(=O)O)C(=O)O)NC(=O)[C@H](CCCCN)NC(=O)[C@H](CC(=O)O)NC(=O)[C@H](CC(C)C)NC(=O)[C@](C)(CC(C)C)NC(=O)[C@H](CCCCN)NC(=O)[C@H](CO)NC(=O)[C@H](Cc1ccccc1)NC(=O)[C@H](CC(=O)O)NC(=O)[C@H](CO)NC(=O)[C@@H](NC(=O)[C@H](Cc1ccccc1)NC(=O)[C@@H](NC(=O)CNC(=O)[C@H](CCC(N)=O)NC(=O)C(C)(C)NC(=O)[C@@H](N)Cc1ccc(O)cc1)[C@@H](C)O)[C@@H](C)O)C(=O)N[C@@H](CCC(=O)O)C(=O)N[C@@H](Cc1ccc(O)cc1)C(=O)N[C@@H](CC(C)C)C(=O)N[C@@H](CC(C)C)C(=O)N[C@@H](CCC(=O)O)C(=O)NC(C)(C)C(=O)NCC(=O)N1CCC[C@H]1C(=O)N[C@@H](CO)C(=O)N[C@@H](CO)C(=O)NCC(=O)N[C@@H](C)C(=O)N1CCC[C@H]1C(=O)N1CCC[C@H]1C(=O)N1CCC[C@H]1C(=O)NCC(=O)N[C@@H](CCC(=O)O)C(=O)NCC(N)=O` [Example 55], for which the EC50 on hGIPR [1] is 27.8 nM; at hGLP-1R [2], 479 nM; on human GcgR it was 960 nM; at hGIPR [3] it was 0.0856 nM; on hGLP-1R [4], 1.96 nM; on hGcgR, 5.2 nM. For the same compound, the half-maximal effective concentration (EC50) on human GLP1-R is 79.5 nM. The “Internalization % TOP” value at human GLP1-R is 70.7%.

For “Y[Aib]QGTFTSDFS[Dab][αMeL]LDKK([AEEA-γGlu-C18 diacid])AQ[Aib]AFIEYLLEGGPSSGAPPPGGS-NH2 [Example 67]”, the EC50 on hGIPR [1] (read-out: cAMP Rel EC50, hGIPR) was found to be 73.3 nM; at hGLP-1R [2] (setting [5]), 683 nM; at human GcgR (read-out: cAMP Rel EC50, hGcgR) it was 781 nM; at hGIPR [3] (setting [6]), 0.34 nM; at hGLP-1R [4] (setting [7]), 4.07 nM; on hGcgR (setting [8]), 3.7 nM. Further, the EC50 on human GLP1-R (setting [9]) turned out to be 50.9 nM. Also, the “Internalization % TOP” value on human GLP1-R worked out at 31.1%.

For the compound “H-Y[Aib]QGTFTSDFS[Orn][αMeL]LDKK([AEEA-γGlu-C18 diacid])AQ[Aib]AFIEWLLEGGTSSGAPPPSGE-NH2 [Example 175]”, the 50% effective concentration (EC50) is 29.6 nM at hGIPR [1] (read-out: cAMP Rel EC50, hGIPR); 386 nM at hGLP-1R [2] (setting [5]); 579 nM at human GcgR (read-out: cAMP Rel EC50, hGcgR); 0.218 nM at hGIPR [3] (setting [6]); 4 nM at hGLP-1R [4] (setting [7]); 4.92 nM on hGcgR (setting [8]). Also, the EC50 at human GLP1-R (setting [9]) worked out at 116 nM. Besides, on human GLP1-R, the “Internalization % TOP” value came to 49.2%.

As for “H-Y[Aib]QGTFTSDFS[Dap][αMeL]LDKK([AEEA-γGlu-C18 diacid])AQ[Aib]AFIEYLLEGGPSSGAPPPGGS-NH2 [Example 68]”, the EC50 on hGIPR [1] (read-out: cAMP Rel EC50, hGIPR) came out at 85.1 nM; at hGLP-1R [2] (setting [5]), 612 nM; at human GcgR (read-out: cAMP Rel EC50, hGcgR), 1160 nM; on hGIPR [3] (setting [6]), 0.46 nM; on hGLP-1R [4] (setting [7]) it was 3.07 nM; on hGcgR (setting [8]), 8.55 nM. The 50% effective concentration (EC50) at human GLP1-R (setting [9]) was found to be 95.2 nM. Also, the “Internalization % TOP” value at human GLP1-R was found to be 33.8%.

As to “H-Y[Aib]QGTFTSDFSK[αMeL]LDKK([AEEA-γGlu-C20 diacid])AQ[Aib]AFIEYLLAGGPSSGAPPPSEG-NH2 [Example 10]”, the EC50 is 43 nM on hGIPR [1] (read-out: cAMP Rel EC50, hGIPR); 375 nM on hGLP-1R [2] (setting [5]); 1640 nM at human GcgR (read-out: cAMP Rel EC50, hGcgR); 0.226 nM at hGIPR [3] (setting [6]); 1.85 nM on hGLP-1R [4] (setting [7]); 7.62 nM at hGcgR (setting [8]). In addition, the EC50 on human GLP1-R (setting [9]) amounted to 79.2 nM. The “Internalization % TOP” value at human GLP1-R was 71.9%.

`CC[C@H](C)[C@H](NC(=O)[C@H](Cc1ccccc1)NC(=O)[C@H](C)NC(=O)C(C)(C)NC(=O)[C@H](CCC(N)=O)NC(=O)[C@H](C)NC(=O)[C@H](CCCCNC(=O)COCCOCCNC(=O)COCCOCCNC(=O)CC[C@H](NC(=O)CCCCCCCCCCCCCCCCC(=O)O)C(=O)O)NC(=O)[C@H](CCCCN)NC(=O)[C@H](CC(=O)O)NC(=O)[C@H](CC(C)C)NC(=O)[C@](C)(CC(C)C)NC(=O)[C@H](CCCN)NC(=O)[C@H](CO)NC(=O)[C@H](Cc1ccccc1)NC(=O)[C@H](CC(=O)O)NC(=O)[C@H](CO)NC(=O)[C@@H](NC(=O)[C@H](Cc1ccccc1)NC(=O)[C@@H](NC(=O)CNC(=O)[C@H](CCC(N)=O)NC(=O)C(C)(C)NC(=O)[C@@H](N)Cc1ccc(O)cc1)[C@@H](C)O)[C@@H](C)O)C(=O)N[C@@H](CCC(=O)O)C(=O)N[C@@H](Cc1ccc(O)cc1)C(=O)N[C@@H](CC(C)C)C(=O)N[C@@H](CC(C)C)C(=O)N[C@@H](CCC(=O)O)C(=O)NC(C)(C)C(=O)NCC(=O)N[C@@H](CCC(=O)O)C(=O)N[C@@H](CO)C(=O)N[C@@H](CO)C(=O)NCC(=O)N[C@@H](C)C(=O)N1CCC[C@H]1C(=O)N1CCC[C@H]1C(=O)N1CCC[C@H]1C(=O)N[C@@H](CO)C(=O)NCC(=O)N[C@@H](CCC(=O)O)C(N)=O` [Example 185]: the half-maximal effective concentration (EC50) was found to be 21.1 nM on hGIPR [1] (read-out: cAMP Rel EC50, hGIPR); 502 nM on hGLP-1R [2] (setting [5]); 504 nM at human GcgR (read-out: cAMP Rel EC50, hGcgR); 0.123 nM on hGIPR [3] (setting [6]); 5.46 nM on hGLP-1R [4] (setting [7]); 3.5 nM at hGcgR (setting [8]). For the same compound, the EC50 at human GLP1-R (setting [9]) came out at 144 nM. Also, the “Internalization % TOP” value on human GLP1-R is given as 43.7%.
